# Experimental data: patent US10053455B2, “Diazaspiroalkaneone-substituted oxazole derivatives as spleen tyrosine kinase inhibitors” (AB SCIENCE, priority 2014, dated 2018)
# System: Salmonella typhimurium strain TA98
# Experiment: AMES mutagenic assay, TA98 strain
# Settings: Salmonella typhimurium, 0.25 μg per well
# Method: Mutagenic activity of test compounds and their metabolites (produced by rat liver S9 fraction) was evaluated in the Salmonella typhimurium strains TA100 and TA98 according to the Ames assay (Toxicology in vitro, (2001), 15: 105-114). […] The results are expressed as a mutagenicity ratio in comparison to solvent controls.
# The results are expressed as a ratio of the number of colonies over the number of colonies in the negative control (DMSO).
row,Structure (SMILES),Mean revertant colony counts
1,"O=[N+]([O-])c1ccc2c(c1)Cc1ccccc1-2 [Compound 2-NF, 2-Nitrofluorene, reference compound]",59.7

# Same assay, conditions: TA98, absence of S-9, 0.25 μg per well (positive control)
row,Structure (SMILES),Ratio treated/solvent
1,"O=[N+]([O-])c1ccc2c(c1)Cc1ccccc1-2 [Compound 2-NF, 2-Nitrofluorene, reference compound]",13.8

# Target: SYK kinase (Homo sapiens (Human), UniProt P43405)
# Experiment: In vitro SYK inhibition assay (HTRF kinase assay)
# Assay type: biochemical
# Settings: read-out: Syk (IC50)
# Method: SYK kinase was purified as a full length protein in a baculovirus system near homogeneity. All kinase assays were performed with the Kinase TK (tyrosine kinase) HTRF (Homogeneous Time Resolved Fluorescence) assay developed by Cisbio international. […] Reactions were initiated upon introduction of the enzyme and terminated with the addition of one reaction volume (25 μl) of HTRF detection buffer. Plates were incubated for one hour at room temperature and the time resolved Fluorescence resonance energy transfer signal was measured in a Pherastar FS microplate reader (BMG Labtech).
# Most of the kinases tested in this study were cloned, expressed and purified in the facilities of the inventors. They were expressed either as N-terminus hexahistidine-, hexahistidine-asparagine- or GST-tagged enzymes in a baculovirus or in a Colibacille expression system. Remaining enzymes (JAKs) were purchased from Millipore or Proqinase. For each enzyme, steady state kinetic parameters were determined and validated with known inhibitors.
# The analysis of the effect of compounds on kinase activity was assessed with the HTRF® KinEASE assay (Cisbio International), an immuno-assay based on the quantification of the level of phosphorylation of a biotinylated peptide substrate using anti-phospho-specific antibody labeled with Europium (Eu^3+) cryptate. This assay comprises two steps: —an enzymatic step, during which the peptide substrate, the kinase, ATP, Mg^2+ and/or Mn^2+ are incubated with varying concentration of drug (from 0 to 10 μM); —a detection step, at the end of the reaction (stopped by addition of EDTA which chelates Mg^2+), the antibody anti-phospho peptide-Eu^3+ (emission 620 nm) and streptavidin XL-665 (emission 665 nm) are added to the reaction mix. After incubation, the obtained signal is proportional to the concentration of phosphorylated peptide in the sample. All measurements were performed on a BMG Labtech Pherastar FS apparatus. Results are expressed in delta fluorescence (DF) unit defined as follow DF %=[(ratio−ratio blank)/(ratio blank)]*100, where ratio=(665 nm/620 nm)*10^4. Each experiment was performed in duplicate and repeated two or three times.
row,Structure (SMILES),IC50 [nM]
1,"O=C1NCCN(c2ncc(-c3cccc(Nc4nccc(N5CCOCC5)n4)c3)o2)C12CC2 [Compound 014, 4-{5-[3-(4-Morpholin-4-yl-pyrimidin-2-ylamino)-phenyl]-oxazol-2-yl}-4,7-diaza-spiro[2.5]octan-8-one]",> 2000
2,"Cc1ccnc(Nc2cc(CN3CCOCC3)cc(-c3cnc(N4CCNC(=O)C45CC5)o3)c2)n1 [Compound 006, 4-{5-[3-(4-Methyl-pyrimidin-2-ylamino)-5-morpholin-4-ylmethyl-phenyl]-oxazol-2-yl}-4,7-diaza-spiro[2.5]octan-8-one]",< 500
3,"O=C1NCCN(c2ncc(-c3cccc(Nc4nccc(-c5cccs5)n4)c3)o2)C12CC2 [Compound 015, 4-{5-[3-(4-Thiophen-2-yl-pyrimidin-2-ylamino)-phenyl]-oxazol-2-yl}-4,7-diaza-spiro[2.5]octan-8-one]",< 500
4,"CC(C)c1ccnc(Nc2cccc(-c3cnc(N4CCNC(=O)C45CCC5)o3)c2)n1 [Compound 011, 5-{5-[3-(4-Isopropyl-pyrimidin-2-ylamino)-phenyl]-oxazol-2-yl}-5,8-diaza-spiro[3.5]non-9-one]",< 500
5,"O=C1NCCN(c2ncc(-c3cc(Nc4nccc(-c5cccs5)n4)ccc3OCCN3CCOCC3)o2)C12CC2 [Compound 004, 4-{5-[2-(2-Morpholin-4-yl-ethoxy)-5-(4-thiophen-2-yl-pyrimidin-2-ylamino)-phenyl]-oxazol-2-yl}-4,7-diaza-spiro[2.5]octan-8-one]",< 500
6,"N#Cc1ccnc(Nc2cccc(-c3cnc(N4CCNC(=O)C45CC5)o3)c2)n1 [Compound 002, 2-{3-[2-(8-Oxo-4,7-diaza-spiro[2.5]oct-4-yl)-oxazol-5-yl]-phenylamino}-pyrimidine-4-carbonitrile]",< 500
7,"Cc1ccnc(Nc2cccc(-c3cnc(N4CCNC(=O)C45CCCC5)o3)c2)n1 [Compound 009, 6-{5-[3-(4-Methyl-pyrimidin-2-ylamino)-phenyl]-oxazol-2-yl}-6,9-diaza-spiro[4.5]decan-10-one]",< 500
8,"O=C1NCCN(c2ncc(-c3cccc(Nc4nccs4)c3)o2)C12CC2 [Compound 022, 4-{5-[3-(Thiazol-2-ylamino)-phenyl]-oxazol-2-yl}-4,7-diaza-spiro[2.5]octan-8-one]",< 500
9,"Cc1ccnc(Nc2cccc(-c3cnc(N4CCNC(=O)C45CC5)o3)c2C)n1 [Compound 020, 4-{5-[2-Methyl-3-(4-methyl-pyrimidin-2-ylamino)-pheny]-oxazol-2-yl}-4,7-diaza-spiro[2.5]octan-8-one]",> 2000
10,"O=C1NCCN(c2ncc(-c3cc(Nc4nccc(C(F)(F)F)n4)ccc3OCCN3CCOCC3)o2)C12CC2 [Compound 017, 4-{5-[2-(2-Morpholin-4-yl-ethoxy)-5-(4-trifluoromethyl-pyrimidin-2-ylamino)-phenyl]-oxazol-2-yl}-4,7-diaza-spiro[2.5]octan-8-one]",< 500
11,"O=C1NCCN(c2ncc(-c3cc(CN4CCOCC4)cc(Nc4nccc(C(F)(F)F)n4)c3)o2)C12CC2 [Compound 003, 4-{5-[3-Morpholin-4-ylmethy1-5-(4-trifluoromethyl-pyrimidin-2-ylamino)-phenyl]-oxazol-2-yl}-4,7-diaza-spiro[2.5]octan-8-one]",< 500
12,"Cc1ccnc(Nc2ccc(F)c(-c3cnc(N4CCNC(=O)C45CC5)o3)c2)n1 [Compound 018, 4-{5-[2-Fluoro-5-(4-methyl-pyrimidin-2-ylamino)-phenyl]-oxazol-2-yl}-4,7-diaza-spiro[2.5]octan-8-one]",< 500
13,"O=C1NCCN(c2ncc(-c3cccc(Nc4nccc(C(F)(F)F)n4)c3)o2)C12CCC2 [Compound 016, 5-{5-[3-(4-Trifluoromethyl-pyrimidin-2-ylamino)-phenyl]-oxazol-2-yl}-5,8-diaza-spiro[3.5]nonan-9-one]",< 500
14,"Cc1cc(Nc2nccc(C(F)(F)F)n2)cc(-c2cnc(N3CCNC(=O)C34CC4)o2)c1 [Compound 005, 4-{5-[3-Methy1-5-(4-trifluoromethyl-pyrimidin-2-ylamino)-phenyl]-oxazol-2-yl}-4,7-diaza-spiro[2.5]octan-8-one]",< 500
15,"O=C1NCCN(c2ncc(-c3cccc(Nc4nccc(C(F)(F)F)n4)c3)o2)C12CC2 [Compound 008, 4-{5-[3-(4-Trifluoromethyl-pyrimidin-2-ylamino)-phenyl]-oxazol-2-yl}-4,7-diaza-spiro[2.5]octan-8-one]",< 500
16,"Cc1ccnc(Nc2cccc(-c3cnc(N4CCNC(=O)C45CC5)o3)c2)c1 [Compound 021, 4-{5-[3-(4-Methyl-pyridin-2-ylamino)-phenyl]-oxazol-2-yl}-4,7-diaza-spiro[2.5]octan-8-one]",500 to 2000
17,"Cc1ccnc(Nc2cccc(-c3cnc(N4CCNC(=O)C45CCC5)o3)c2)n1 [Compound 012, 5-{5-[3-(4-Methyl-pyrimidin-2-ylamino)-phenyl]-oxazol-2-yl}-5,8-diaza-spiro[3.5]nonan-9-one]",< 500
18,"CCc1ccnc(Nc2cccc(-c3cnc(N4CCNC(=O)C45CC5)o3)c2)n1 [Compound 007, 4-{5-[3-(4-Ethyl-pyrimidin-2-ylamino)-phenyl]-oxazol-2-yl}-4,7-diaza-spiro[2.5]octan-8-one]",< 500
19,"O=C1NCCN(c2ncc(-c3cccc(Nc4nccc(-c5ccccc5)n4)c3)o2)C12CC2 [Compound 010, 4-{5-[3-(4-Phenyl-pyrimidin-2-ylamino)-phenyl]-oxazol-2-yl}-4,7-diaza-spiro[2.5]octan-8-one]",< 500
20,"CC(C)c1ccnc(Nc2cccc(-c3cnc(N4CCNC(=O)C45CC5)o3)c2)n1 [Compound 013, 4-{5-[3-(4-Isopropyl-pyrimidin-2-ylamino)-phenyl]-oxazol-2-yl}-4,7-diaza-spiro[2.5]octan-8-one]",< 500
